Laboratory results reported in PMC10233092, “Selective Janus kinase 1 inhibition resolves inflammation and restores hair growth offering a viable treatment option for alopecia areata” (Skin Health and Disease, 2023).
Several values for one entry are separate records, joined by “and”; a condition that tells them apart may be missing. Equal values may be shown once.

Key:
[1] = molecular target: JAK1 (Homo sapiens, UniProt P23458); experiment: JAK1 kinase inhibition, Calliper assay; assay type: biochemical; settings: physiological ATP concentration of 5 mM
Chain of JAK1 (P23458 whole entry, species assumed): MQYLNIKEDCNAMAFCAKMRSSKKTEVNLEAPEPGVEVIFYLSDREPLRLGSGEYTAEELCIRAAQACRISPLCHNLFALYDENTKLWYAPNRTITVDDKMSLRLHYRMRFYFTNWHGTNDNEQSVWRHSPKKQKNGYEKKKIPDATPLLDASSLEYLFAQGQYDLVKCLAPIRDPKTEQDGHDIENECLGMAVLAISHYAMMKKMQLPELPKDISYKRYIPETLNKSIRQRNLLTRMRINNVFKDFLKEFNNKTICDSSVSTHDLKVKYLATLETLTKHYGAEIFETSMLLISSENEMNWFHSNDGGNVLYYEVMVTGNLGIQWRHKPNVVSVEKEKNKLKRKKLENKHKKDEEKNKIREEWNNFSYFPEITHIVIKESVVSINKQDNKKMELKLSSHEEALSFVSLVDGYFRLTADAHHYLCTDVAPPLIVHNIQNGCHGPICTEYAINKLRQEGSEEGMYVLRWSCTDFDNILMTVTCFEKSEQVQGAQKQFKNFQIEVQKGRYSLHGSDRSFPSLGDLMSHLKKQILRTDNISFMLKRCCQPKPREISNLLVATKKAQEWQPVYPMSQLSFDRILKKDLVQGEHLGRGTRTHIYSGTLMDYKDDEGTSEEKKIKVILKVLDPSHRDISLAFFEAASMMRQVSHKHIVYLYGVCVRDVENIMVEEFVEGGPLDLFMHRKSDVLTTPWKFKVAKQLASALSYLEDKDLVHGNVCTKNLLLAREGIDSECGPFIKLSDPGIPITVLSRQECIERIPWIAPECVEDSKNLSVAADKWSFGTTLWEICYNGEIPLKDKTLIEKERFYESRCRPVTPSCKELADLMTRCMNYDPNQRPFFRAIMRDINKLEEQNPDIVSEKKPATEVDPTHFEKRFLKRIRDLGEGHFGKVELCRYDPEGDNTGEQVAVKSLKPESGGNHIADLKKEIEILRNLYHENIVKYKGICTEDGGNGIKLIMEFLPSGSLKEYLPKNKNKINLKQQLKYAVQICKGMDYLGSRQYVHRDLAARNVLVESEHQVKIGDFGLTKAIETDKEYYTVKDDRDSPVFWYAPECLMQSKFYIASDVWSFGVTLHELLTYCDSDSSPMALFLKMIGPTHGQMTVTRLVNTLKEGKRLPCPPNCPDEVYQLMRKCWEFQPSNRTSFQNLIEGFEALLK

[2] = system: IL‐4, STAT6‐Luc; experiment: IL-4-induced JAK-STAT6-luciferase assay in U937 monocytes; assay type: cell-based; settings: Homo sapiens, U-937, interleukin at EC80
[3] = Solubility in phosphate buffer; assay type: physicochemical; settings: pH 7.4, aqueous buffer
Text: TABLE 1 In vitro potency and selectivity of JAK inhibitors | column: Solubility (μM) ^c

[4] = LogD7.4; assay type: physicochemical; settings: pH 7.4
Text: TABLE 2 In vitro and in vivo DMPK properties of Cmpd A, B & C | column: In vitro mouse & physical chemical properties / LogD7.4

[5] = Plasma protein binding by equilibrium dialysis; assay type: in vitro ADME; settings: mouse plasma
Text: (§1) Detailed description in Supplementary materials.

[6] = Unbound fraction in tissue from rearranged Gillette equation; assay type: in vitro ADME, mouse
Text: as §1

[7] = Caco permeability and efflux; assay type: in vitro ADME; settings: human, Caco-2
Text: TABLE 2 In vitro and in vivo DMPK properties of Cmpd A, B & C | column: In vitro mouse & physical chemical properties / Caco AtB 10^−6 cm/s/Efflux ratio ^b

[8] = Mouse pharmacokinetics i.v./p.o.; assay type: in vivo; settings: plasma, male C57Bl6 mice
Method: as §1
Pharmacokinetics and evaluation of compound exposures: Male C57/BL mice were obtained from Si Bei Fu and weighed approximately 20-30 grams (7-9 weeks) at the start of the pharmacokinetic study. Animals had free access to food and water during the course of the experiment. Dose formulations were prepared on the study day and were stirred at room temperature for at least 15 minutes prior dosing and during the administration event. Cmpd A, B and C were dosed at 0.5-1 mg/kg i.v. and 1-300 mg/kg p.o. The dorsal metatarsal vein was used for sampling and typically 0.02 mL blood was withdrawn. Blood was taken at 2, 5, 15, 45 min, 2, 4, 8, 24 hours post the i.v. dose and at 15, 30 min, 1, 2, 4, 8, 24 hours post the p.o. dose. Blood of each sample was transferred into plastic micro centrifuge tubes containing 2 μL of 1000 IU Heparin-Na anticoagulant. These tubes were then inverted several times and placed on wet ice prior to centrifugation at 10,000 rpm for 2 minutes at 4°C in order to collect plasma. Plasma samples were stored at -75±15°C prior analysis. Compound concentrations were analyzed using a LC-MS/MS method (see below).
Effective T1/2 equals Ln2 x Vss/CL.

[9] = system: C3H/HeJ mouse model of AA; experiment: Hair growth (Hair Index Score) in C3H/HeJ graft-induced AA mice; assay type: in vivo; settings: for Hair index score (% area x score, 0 to 3): individual mice and mean±SD
Method: Female C3H/HeJ graft‐induced mice were used as a preclinical model of Alopecia Areata (AA) according to previous publications.[45], [46], [47] Healthy C3H/HeJ and mice with fully developed AA (16–24 weeks after induction of disease) were monitored by means of body weight and hair index score on a weekly basis for 12 weeks, with free access to food and water (Healthy and AA groups, respectively).
Hair growth was evaluated using a scoring index (Hair Index Score, HIS). A score from 0 to 3 (0 = no fur, 1 = stubble, short broken hairs, 2 = sparse, intermediate length hairs, 3 = normal length and density hairs) was taken times the surface area of the mouse with each respective score (dorsal area = 50%, ventral area = 50%).
12 mice were given once daily servings of Cmpd A for free eating at approximately 100 mg/kg (compound dissolved in 10 ml tap water and mixed with 5 g grounded R70 standard rodent chow from Lantmännen, Sweden) for 4 weeks. Typically, these servings were finished within 2 h. Six mice were terminated at the end of the treatment period, blood and skin taken for determination of drug concentration and skin sampled for histopathological evaluation (see below, these mice are representing the systemic JAK1 inhibition group in histopathological evaluations). Skin biopsies for mRNA expression and blood was sampled from the other 6 mice where after these mice were followed off treatment for an additional 8 weeks when terminal samples were taken (8w off Tx group).
Another set of 6 mice were treated topically on the right side of their back with Cmpd B (0.1% cream formulation, Eucerin Aquaporin rich) for 12 weeks (local JAK1 inhibition group). Initially, twice weekly for 2 weeks followed by once weekly due to high tissue retention. Plasma exposure was evaluated during the course of the study as well as at termination when also skin was sampled for exposure, histopathological evaluation and mRNA expression.
The aim of the study was to achieve similar skin exposures by both routes of administration but only systemic exposure after oral administration. […] Blood, skin, lymph nodes and spleens were collected at termination for evaluation of exposure, mRNA expression, histopathology (RNAScope) and cell differentials (flow cytometry). Untreated healthy and alopecic mice served as controls (n = 6).

IC50 [1]: 27 nM | IC50 [2]: 84 nM | solubility [3]: > 337 µM | logD [4]: 2.9 | f u, plasma [5]: 0.038 | f u, tissue ([6]; mouse, from rearranged Gillette equation, V blood 0.07 L/kg, V tissue 0.6 L/kg): 0.003 | unbound fraction in plasma compared to skin ([6]; skin value estimated from the Gillette equation): ~10 fold | efflux ratio ([7]; Efflux ratio = BtA/AtB): 1 | Papp A→B ([7]; read-out: Caco AtB): 21 ×10⁻⁶ cm/s | clearance ([8]; iv, i.v. 0.5-1.0 mg/kg): 32 mL/min/kg | Vd ([8]; iv, i.v. 0.5-1.0 mg/kg, read-out: V ss): 9.1 L/kg | bioavailability ([8]; po, p.o. 300 (A), 1.0 (B), 2.0 (C) mg/kg, read-out: Oral % F): 100%
SMILES: Cc1cnc(Nc2cccnc2F)nc1-c1c[nH]c2c(NC(=O)[C@@H](C)N3CCN(C)CC3)cccc12 [Cmpd A]
remission after treatment cessation ([9]; AA mice, 4 weeks treatment, followed 8 weeks off treatment): relapsed after treatment cessation | hair growth, result in words ([9]; AA mice, oral daily servings (systemic exposure)): quick and complete restoration of hair growth | time to complete regrowth (Hair Index Score) ([9]; AA mice, oral treatment, n = 6 per group): ≤ 4 weeks | Hair index score (% area x score, 0 to 3) ([9]; Systemic JAK1i group terminated at w4 (oral ~100 mg/kg daily), w0, n=6, 100 mg/kg): 0 and 20 | Hair index score (% area x score, 0 to 3) ([9]; Systemic JAK1i group terminated at w4 (oral ~100 mg/kg daily), w0, n=6, 100 mg/kg, mean): 3±8 | Hair index score (% area x score, 0 to 3) ([9]; Systemic JAK1i group terminated at w4, w1): 0 and 15 and 10 | Hair index score (% area x score, 0 to 3) ([9]; Systemic JAK1i group terminated at w4, w1, mean): 7±7 | Hair index score (% area x score, 0 to 3) ([9]; Systemic JAK1i group terminated at w4, w2): 160 and 170 and 180 and 120 and 190 | Hair index score (% area x score, 0 to 3) ([9]; Systemic JAK1i group terminated at w4, w2, mean): 163±24 | Hair index score (% area x score, 0 to 3) ([9]; Systemic JAK1i group terminated at w4, w3): 280 and 285 and 290 and 250 and 295 | Hair index score (% area x score, 0 to 3) ([9]; Systemic JAK1i group terminated at w4, w3, mean): 280±16 | Hair index score (% area x score, 0 to 3) ([9]; Systemic JAK1i group terminated at w4, w4): 300 | Hair index score (% area x score, 0 to 3) ([9]; Systemic JAK1i group terminated at w4, w4, mean): 300±0 | Hair index score (% area x score, 0 to 3) ([9]; Systemic JAK1i group treated 4 weeks then followed off treatment, w0, n=6): 125 and 50 and 20 and 90 | Hair index score (% area x score, 0 to 3) ([9]; Systemic JAK1i group treated 4 weeks then followed off treatment, w0, n=6, mean): 71±38 | Hair index score (% area x score, 0 to 3) ([9]; Systemic JAK1i group treated 4 weeks then off treatment, w1): 125 and 50 and 20 and 90 | Hair index score (% area x score, 0 to 3) ([9]; Systemic JAK1i group treated 4 weeks then off treatment, w1, mean): 71±38 | Hair index score (% area x score, 0 to 3) ([9]; Systemic JAK1i group treated 4 weeks then off treatment, w2): 170 and 200 and 140 and 180 and 190 | Hair index score (% area x score, 0 to 3) ([9]; Systemic JAK1i group treated 4 weeks then off treatment, w2, mean): 180±23 | Hair index score (% area x score, 0 to 3) ([9]; Systemic JAK1i group treated 4 weeks then off treatment, w4): 285 and 295 and 300 | Hair index score (% area x score, 0 to 3) ([9]; Systemic JAK1i group treated 4 weeks then off treatment, w4, mean): 295±5 | Hair index score (% area x score, 0 to 3) ([9]; Systemic JAK1i group treated 4 weeks then off treatment, w8 (4 weeks off)): 245 and 200 and 210 and 195 and 270 and 75 | Hair index score (% area x score, 0 to 3) ([9]; Systemic JAK1i group treated 4 weeks then off treatment, w8 (4 weeks off), mean): 199±67 | Hair index score (% area x score, 0 to 3) ([9]; Systemic JAK1i group treated 4 weeks then off treatment, w12 (8 weeks off)): 90 and 60 and 85 and 45 and 205 and 35 | Hair index score (% area x score, 0 to 3) ([9]; Systemic JAK1i group treated 4 weeks then off treatment, w12 (8 weeks off), mean): 87±62
